# Measured values from paper PMC11820896, “New Compounds with Enhanced Biological Activity Through the Strategic Introduction of Silylated Groups into Hydroxystearic Acids” (Molecules, 2025).
# How the values were obtained:
# MCF7 = assay: MTT assay, MCF7 cells; type: cell-based; conditions: Homo sapiens, means of four experiments, na = not active, read-out: In vitro cytotoxic activity (IC50), MCF7
# Method: (§1) The human colorectal adenocarcinoma (Caco-2), human colorectal adenocarcinoma (HT29), normal human intestinal (I407), human cervical cancer (HeLa), human breast cancer (MCF7), human bone osteosarcoma (U2OS), and human acute T-cell leukemia (Jurkat J6) cell lines were purchased from American Type Culture Collection (ATCC, Manassas, VA, USA). Cells were cultured in RPMI 1640 medium (Labtek Eurobio, Milan, Italy), supplemented with 10% FCS (Euroclone, Milano, Italy) and 2 mM L-glutamine (Sigma-Aldrich, Milano, Italy), at 37 °C and in a 5% CO2 atmosphere. The compounds were dissolved in DMSO in a 30–40 mM stock solution. In cell treatments, the final DMSO concentration never exceeded 0.1%.
# (§2) Cells were seeded in a 96-well culture plastic plate (Sarsted, Milan, Italy), at 5 × 10^4 cells/well and, after 24 h, were exposed to increasing concentrations of the different compounds (from 1 nM to 500 nM) dissolved in RPMI 1640 medium. An MTT assay was performed according to Micheletti et al..
# (§3) The absorbance at 570 nm was measured using a multi-well plate reader (Tecan, Männedorf, Switzerland), and data were analyzed by Prism GraphPad 8 software and expressed as IC50 nM.
# HeLa = assay: MTT assay, HeLa cells; type: cell-based; conditions: Homo sapiens, means of four experiments, na = not active, read-out: In vitro cytotoxic activity (IC50), HeLa
# Method: as §1, §2, §3
# U2OS = assay: MTT assay, U2OS cells; type: cell-based; conditions: Homo sapiens, means of four experiments, na = not active, read-out: In vitro cytotoxic activity (IC50), U2OS
# Method: as §1, §2, §3
# J6 = assay: MTT assay, Jurkat J6 cells; type: cell-based; conditions: Homo sapiens, means of four experiments, na = not active, read-out: In vitro cytotoxic activity (IC50), J6
# Method: as §1, §2, §3
# HT29 cells = assay: Western blot of tyrosine residue phosphorylation; type: cell-based, human; conditions: most at proteins above 50 KDa
# Method: (§4) HT29 cells were seeded at a density of 5.0 × 10^4 cells/cm^2 in a Petri dish and treated with 50 nM of compound 4 for 48 h. Cells were then washed with PBS and incubated with the lysis buffer radio immunoprecipitation assay (RIPA) at 4 °C for 15 min with agitation. The proteins were quantified using the Bio-Rad protein assay (Bio-Rad, Hercules, CA, USA) and analyzed by SDS-PAGE and Western blot.
# (§5) For the analysis of protein phosphorylation, protein samples (30 μg) were separated on 12% SDS-PAGE in Tris-glycine buffer by electrophoresis at 200 V for 1 h. […] Densitometric analysis was performed with ImageLab 6.1 software (Bio-Rad, Hercules, CA, USA), and bands were normalized to the respective total protein content. For SCD1 analysis, protein samples were resolved on a 10% gel in MOPS buffer at 200 V for 45 min. After electrophoresis and Western blot, the nitrocellulose membrane was incubated overnight at 4 °C with primary antibody anti-SCD1 (Biorbyt, Durham, NC, USA) diluted in PBS-TWEEN 20 0.1%. The membrane was incubated for 1 h with a secondary horseradish peroxidase-conjugated antibody (GE Healthcare, Chicago, IL, USA) and then detected as described above. Quantification was completed by a Fluor-S Max MultiImager (Bio-Rad, Hercules, CA, USA) using a β-tubulin signal as a control.
# [1] = system: histones H2/H3 and H4 of HT29 cells; assay: Histone acetylation status, Western blot; type: cell-based, human; conditions: 50 nM, 6 h
# Method: HT29 were seeded at a density of 1.5 × 10^4 cell/cm^2 in a Petri dish and, after 24 h, treated for 6 h with 50 nM of compound 4. Cells were harvested, and histones were extracted by previously isolated nuclei according to […] al.. The proteins were resolved on a 10% gel in MES buffer at 200 V for 35 min and immunoblotted with mouse anti-acetylated lysines (Millipore, Billerica, MA, USA) or rabbit anti-γH2Ax (Santa Cruz Biotechnology, Dallas, TX, USA) primary antibodies. The membranes were developed with Clarity Western ECL Substrate (Bio-Rad, Hercules, CA, USA) after incubation with mouse or rabbit secondary horseradish peroxidase-conjugated antibody (GE Healthcare, Chicago, IL, USA). SDS-PAGE was stained with Coomassie Brilliant Blue R-250 (Bio-Rad, Hercules, CA, USA), while densitometric analyses were performed using a Fluor-S Max MultiImager (Bio-Rad, Hercules, CA, USA), and relative quantification of histone acetylation and histone H2Ax phosphorylation signals were normalized to the H1 signal as a control.
# FASN = FASN mRNA expression, qRT-PCR; type: cell-based, human; conditions: after 6 h of treatment, HT29
# Method: Total RNA from control- and 4-treated HT29 cells was isolated using the RNeasy Mini Kit (Qiagen, Hilden, Germany) according to the manufacturer's protocol. RNA was quantified using the NanoDrop spectrophotometer (Thermo Fisher Scientific, Waltham, MA, USA). RNA (1 μg) was transcribed into cDNA using the PrimeScript RT Master Mix (Perfect Real Time) (Takara Bio, Kusatsu, Japan) according to the manufacturer's instructions. Real-time PCR was performed using the Sybr Premix Ex Taq Takara kit (Takara Bio, Kusatsu, Japan) and the LightCycler 2.0 instrument (Roche Diagnostic, Basel, Switzerland). The following primers (Sigma-Aldrich, Milan, Italy) were used: [NT] (forward) and [NT] (reverse) for FASN detection, [NT] (forward) and [NT] (reverse) for SCD1 detection, and [NT] (forward) and [NT] (reverse) for the detection of β-actin. The first gene analyzed was the housekeeping gene β-actin, and its CT values were used as standards in the ΔΔCT method of result analysis. cDNA samples from HT29-treated cells were compared with untreated control cells.
# SCD1 = SCD1 protein, Western blot; type: cell-based, human; conditions: 50 nM, 48 h, HT29
# Method: as §4, §5
smiles,measurement,setting,value
"CCCCCCCCC[C@H](CCCCCCCC(=O)O)O[Si](C)(C)C(C)(C)C [Compound 4, (R)-9-((tert-butyldimethylsilyl)oxy)octadecanoic acid]",IC50,MCF7,211.6 ± 0.23 nM
same,IC50,HeLa,166.1 ± 0.33 nM
same,IC50,U2OS,36.81 ± 0.18 nM
same,IC50,J6,214.1 ± 0.26 nM
same,phosphorylation levels at tyrosine residues of proteins,HT29 cells,decrease in phosphorylation levels
same,acetylation state of histones H2/H3 and H4,[1],extended increase
same,FASN gene expression,FASN,marked down-regulation
same,SCD1 protein amount,SCD1,decrease in the amount of its protein product
